Reference: patent US5071750A, “Enzymatic process for preparing N-acetylneuraminic acid” (Forschungszentrum Juelich GmbH, priority 1989, dated 1991)

Tests used:
[1] = biological target: T1, N-acylglucosamine-2-epimerase (E.C. 5.1.3.8) (Sus scrofa, UniProt P17560); assay: relative activity of the epimerase (isomerization of GlcNAc to ManNAc) in the presence of pyruvate or Neu5Ac; assay type: biochemical; settings: as a function of the concentration of the inhibiting substance (FIG. 2A)
T1 sequence (P17560 1-402): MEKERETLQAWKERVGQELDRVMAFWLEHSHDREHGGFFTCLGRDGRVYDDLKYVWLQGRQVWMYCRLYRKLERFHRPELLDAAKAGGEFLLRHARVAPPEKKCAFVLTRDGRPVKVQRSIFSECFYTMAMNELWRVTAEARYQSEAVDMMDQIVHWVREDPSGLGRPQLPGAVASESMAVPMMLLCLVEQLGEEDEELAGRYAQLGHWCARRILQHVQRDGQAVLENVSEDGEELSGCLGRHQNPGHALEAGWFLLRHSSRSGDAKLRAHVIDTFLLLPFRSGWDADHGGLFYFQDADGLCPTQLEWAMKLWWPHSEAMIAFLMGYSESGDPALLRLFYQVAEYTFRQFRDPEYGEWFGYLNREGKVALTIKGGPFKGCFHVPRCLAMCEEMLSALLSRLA

[2] = biological target: N-acetylneuraminic acid pyruvate lyase (E.C. 4.1.3.3) (Escherichia coli, UniProt P0A6L4); assay: reverse reaction (cleavage of Neu5Ac) by the lyase in the presence of pyruvate; assay type: biochemical; settings: considerable excess of pyruvate in comparison with the Neu5Ac formed (FIG. 4)
N-acetylneuraminic acid pyruvate lyase (E.C. 4.1.3.3), sequence (P0A6L4 whole entry): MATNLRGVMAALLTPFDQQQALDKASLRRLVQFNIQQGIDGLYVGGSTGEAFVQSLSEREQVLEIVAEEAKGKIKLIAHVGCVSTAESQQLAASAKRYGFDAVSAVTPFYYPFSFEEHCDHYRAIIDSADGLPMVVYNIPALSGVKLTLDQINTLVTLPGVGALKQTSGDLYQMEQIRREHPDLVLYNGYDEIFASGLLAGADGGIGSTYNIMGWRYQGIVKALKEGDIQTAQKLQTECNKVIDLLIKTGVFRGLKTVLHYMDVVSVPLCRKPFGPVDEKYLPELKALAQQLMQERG
Text: Because of the large excess of pyruvate, subsequent conversion of the ManNAc to Neu5Ac is promoted.
The Neu5Ac formed is, in accordance with the precision of the equilibrium, subject to more or less strong renewed cleavage by the reverse reaction. Although this reaction is inhibited by an excess of pyruvate (see FIG. 4), it appears advantageous continuously to pass reaction medium from the EMR over an ion exchange column and recycle the rest into the reactor. Alternate use of two columns is advantageous.

| SMILES | inhibition of the epimerase-catalysed isomerization of GlcNAc to ManNAc [1] | inhibition of the reverse reaction of Neu5Ac formation [2] |
| --- | --- | --- |
| CC(=O)N[C@H]1[C@H]([C@H](O)[C@H](O)CO)OC(O)(C(=O)O)C[C@@H]1O (stereo partly drawn) [N-acetylneuraminic acid] | inhibiting effect | – |
| CC(=O)C(=O)O [pyruvic acid] | increasingly inhibited | strongly inhibited |
